Measurements as given in PubChem BioAssay (NCI).
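GI50 = concentration required for 50% inhibition of growth. TGI is the concentration that stops growth completely.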

How the values were obtained:
Assay in all cases: growth of human tumour cells (NCI), 384-well format
[1] = tested on: K-562 leukemia
[2] = tested on: UACC-62 melanoma
[3] = tested on: NCI-H522 lung
[4] = tested on: A498 renal
[5] = tested on: HOP-62 NSCLC
[6] = tested on: UACC-257 melanoma
[7] = tested on: TK-10 renal
[8] = tested on: NCI/ADR-RES ovarian
[9] = tested on: SW-620 colon
[10] = tested on: M14 melanoma
[11] = tested on: MOLT-4 leukemia
[12] = tested on: PC-3 prostate
[13] = tested on: SF-539 CNS
[14] = tested on: NCI-H226 lung
[15] = tested on: KM12 colon
[16] = tested on: SNB-75 CNS
[17] = tested on: CCRF-CEM leukemia
[18] = tested on: ACHN renal
[19] = tested on: RPMI-8226 leukemia
[20] = tested on: OVCAR-4 ovarian
[21] = tested on: BT-549 breast
[22] = tested on: SF-268 CNS
[23] = tested on: MALME-3M melanoma
[24] = tested on: SK-OV-3 ovarian
[25] = tested on: T-47D breast
[26] = tested on: 786-0 renal
[27] = tested on: HT29 colon
[28] = tested on: HCT-15 colon
[29] = tested on: HS 578T breast
[30] = tested on: SR leukemia
[31] = tested on: CAKI-1 renal
[32] = tested on: HL-60(TB) leukemia
[33] = tested on: UO-31 renal
[34] = tested on: SK-MEL-28 melanoma
[35] = tested on: SK-MEL-5 melanoma
[36] = tested on: EKVX NSCLC
[37] = tested on: NCI-H460 NSCLC
[38] = tested on: OVCAR-8 ovarian
[39] = tested on: OVCAR-5 ovarian
[40] = tested on: IGROV1 ovarian
[41] = tested on: SF-295 CNS
[42] = tested on: HOP-92 NSCLC
[43] = tested on: MDA-MB-468 breast
[44] = tested on: COLO 205 colon
[45] = tested on: A549 NSCLC
[46] = tested on: DU-145 prostate
[47] = tested on: RXF 393 renal
[48] = tested on: SNB-19 CNS
[49] = tested on: NCI-H322M lung
[50] = tested on: NCI-H23 lung
[51] = tested on: MDA-MB-435 melanoma
[52] = tested on: LOX IMVI melanoma
[53] = tested on: OVCAR-3 ovarian
[54] = tested on: MDA-MB-231 breast
[55] = tested on: SN12C renal
[56] = tested on: MCF7 breast
[57] = tested on: HCC-2998 colon

## Cc1cc2c(C(N)=O)cccc2n1-c1nc2c(c(NCc3ccccc3)n1)CCCN2
[1]
  GI50: 134 nM
  TGI: 269 nM
[2]
  GI50: 129 nM
  TGI: 258 nM
[3]
  GI50: 125 nM
  TGI: 252 nM
[4]
  GI50: 162 nM
  TGI: 303 nM
[5]
  GI50: 167 nM
  TGI: 305 nM
[6]
  GI50: 173 nM
  TGI: 313 nM
[7]
  GI50: 179 nM
  TGI: 362 nM
[8]
  GI50: 182 nM
  TGI: 323 nM
[9]
  GI50: 176 nM
  TGI: 316 nM
[10]
  GI50: 170 nM
  TGI: 309 nM
[11]
  GI50: 150 nM
  TGI: 284 nM
[12]
  GI50: 188 nM
  TGI: 331 nM
[13]
  GI50: 167 nM
  TGI: 305 nM
[14]
  GI50: 102 nM
  TGI: 220 nM
[15]
  GI50: 168 nM
  TGI: 310 nM
[16]
  GI50: 194 nM
  TGI: 338 nM
[17]
  GI50: 162 nM
  TGI: 299 nM
[18]
  GI50: 157 nM
  TGI: 397 nM
[19]
  GI50: 20.8 nM
  TGI: 41.5 nM
[20]
  GI50: 184 nM
  TGI: 325 nM
[21]
  GI50: 193 nM
  TGI: 342 nM
[22]
  GI50: 174 nM
  TGI: 313 nM
[23]
  GI50: 151 nM
  TGI: 284 nM
[24]
  GI50: 246 nM
  TGI: 497 nM
[25]
  GI50: 162 nM
  TGI: 299 nM
[26]
  GI50: 173 nM
  TGI: 314 nM
[27]
  GI50: 168 nM
  TGI: 310 nM
[28]
  GI50: 155 nM
  TGI: 295 nM
[29]
  GI50: 78.8 nM
  TGI: 204 nM
[30]
  GI50: 115 nM
  TGI: 238 nM
[31]
  GI50: 170 nM
  TGI: 317 nM
[32]
  GI50: 162 nM
  TGI: 300 nM
[33]
  GI50: 171 nM
  TGI: 318 nM
[34]
  GI50: 177 nM
  TGI: 318 nM
[35]
  GI50: 34.9 nM
  TGI: 106 nM
[36]
  GI50: 162 nM
  TGI: 303 nM
[37]
  GI50: 177 nM
  TGI: 324 nM
[38]
  GI50: 159 nM
  TGI: 296 nM
[39]
  GI50: 183 nM
  TGI: 326 nM
[40]
  GI50: 168 nM
  TGI: 315 nM
[41]
  GI50: 154 nM
  TGI: 290 nM
[42]
  GI50: 154 nM
  TGI: 290 nM
[43]
  GI50: 223 nM
  TGI: 369 nM
[44]
  GI50: 193 nM
  TGI: 339 nM
[45]
  GI50: 182 nM
  TGI: 339 nM
[46]
  GI50: 195 nM
  TGI: 351 nM
[47]
  GI50: 78.5 nM
  TGI: 206 nM
[48]
  GI50: 191 nM
  TGI: 336 nM
[49]
  GI50: 200 nM
  TGI: 374 nM
[50]
  GI50: 134 nM
  TGI: 263 nM
[51]
  GI50: 178 nM
  TGI: 320 nM
[52]
  GI50: 101 nM
  TGI: 220 nM
[53]
  GI50: 138 nM
  TGI: 270 nM
[54]
  GI50: 181 nM
  TGI: 323 nM
[55]
  GI50: 175 nM
  TGI: 315 nM
[56]
  GI50: 142 nM
  TGI: 343 nM
[57]
  GI50: 166 nM
  TGI: 305 nM
